Drawing on patent US12404289B2 (Gilead Sciences, Inc., priority 2020, dated 2025), this text covers CC50 and EC50 for 7 molecules.

pEC50: −log10 of the molar value.

In general, CC50 refers to the concentration at which the toxic effect on the cells reaches its halfway point. The term pEC50 denotes the negative decadic logarithm of the EC50, by convention in mol/L.

Data set [1] is described as follows: CC50 assay (cytopathology in HEp-2 cells). Format: cell-based. The note with it: human, HEp-2 cells, 4 days, CellTiter-Glo; Table 1; read-out: RSV CC50. The method, then:
The cytopathology of compounds in HEp-2 cells is determined in the following manner. HEp-2 cells are suspended in DMEM+GlutaMAX (supplemented with 10% FBS and 1% Penicillin/Streptomycin) and seeded into 96 well plates (3×10^3/well). After a 4-hour incubation at 37° C.+5% CO2, three-fold serial dilutions of compounds are added to each well using an HP D300e digital dispenser. The cells are then incubated for 4 days at 37° C. and 5% CO2. The final volume in each well is 200 μL. Untreated wells are included as controls for 100% cell viability, while compounds treated with 5 uM puromycin are included as controls for 0% viability. Following the incubation, 100 μL of culture supernatant is removed from each well and replaced with 100 μL of CellTiter-Glo reagent (Promega, Madison, WI, Cat #G7573). The plates are then rocked for 2 minutes followed by a 10-minute incubation at 25° C. Compound-induced cytopathic effect is then assessed by measuring luminescence signal using and Envision plate reader. Values are normalized to the untreated DMSO and puromycin-treated controls (as 100% and 0% viability, respectively) and data is fit using non-linear regression analysis using XLfit4. The CC50 value for each compound is then determined as the concentration reducing cell viability by 50%.

Data set [2] relates to Respiratory syncytial virus (RSV) strain A2. The data set can be described thus: RSV antiviral assay (HEp-2, 96 well). The format is cell-based. The following applies: human respiratory syncytial virus, HEp-2, 96 h, read-out: EC50-RSV-HEP-2-96, HEp-2 cells, RSV A2, MOI=4, 4 days, 96 well, CellTiter-Glo; Table 1.

In the case of `COC(=O)[C@H](C)N[P@](=O)(OC[C@H]1O[C@@](C#N)(c2ccc3c(N)ncnn23)[C@H](OC(=O)C(C)C)[C@@H]1OC(=O)C(C)C)Oc1ccccc1` [Example 4, (2R,3R,4R,5R)-2-(4-aminopyrrolo[2,1-f][1,2,4]triazin-7-yl)-2-cyano-5-((((S)—(((S)-1-methoxy-1-oxopropan-2-yl)amino)(phenoxy)phosphoryl)oxy)methyl)tetrahydrofuran-3,4-diyl bis(2-methylpropanoate)], the CC50 at 4 days in data set [1] was 5580 nM. The negative logarithm of the EC50 (pEC50) in data set [2] was 7.03.

Turning to `CCC(=O)O[C@H]1[C@@H](OC(=O)CC)[C@](C#N)(c2ccc3c(N)ncnn23)O[C@@H]1CO[P@@](=O)(N[C@@H](C)C(=O)OC)Oc1ccccc1` [Example 5, (2R,3R,4R,5R)-2-(4-aminopyrrolo[2,1-f][1,2,4]triazin-7-yl)-2-cyano-5-((((S)—(((S)-1-methoxy-1-oxopropan-2-yl)amino)(phenoxy)phosphoryl)oxy)methyl) tetrahydrofuran-3,4-diyl Dipropionate], the CC50 at 4 days in data set [1] is 9540 nM. For the same molecule, in data set [2], the pEC50 is 6.96.

Consider `COC(=O)[C@H](C)N[P@](=O)(OC[C@H]1O[C@@](C#N)(c2ccc3c(N)ncnn23)[C@H](OC(C)=O)[C@@H]1OC(C)=O)Oc1ccccc1` [Example 6, (2R,3R,4R,5R)-2-(4-aminopyrrolo[2,1-f][1,2,4]triazin-7-yl)-2-cyano-5-((((S)—(((S)-1-methoxy-1-oxopropan-2-yl)amino)(phenoxy)phosphoryl)oxy)methyl) tetrahydrofuran-3,4-diyl Diacetate], for which, in data set [1], the CC50 at 4 days stood at 26400 nM. Further, the pEC50 in data set [2] was 6.72.

On to `CCC(=O)O[C@H]1[C@@H](OC(=O)CC)[C@](C#N)(c2ccc3c(N)ncnn23)O[C@@H]1CO[P@@](=O)(N[C@@H](C)C(=O)OC(C)C)Oc1ccccc1` [Example 8, (2R,3R,4R,5R)-2-(4-aminopyrrolo[2,1-f][1,2,4]triazin-7-yl)-2-cyano-5-((((S)—(((S)-1-isopropoxy-1-oxopropan-2-yl)amino)(phenoxy)phosphoryl)oxy)methyl) tetrahydrofuran-3,4-diyl Dipropionate], for which the CC50 at 4 days in data set [1] was > 40000 nM. Also, in data set [2], the pEC50 is 6.81.

`CC(=O)O[C@H]1[C@@H](OC(C)=O)[C@](C#N)(c2ccc3c(N)ncnn23)O[C@@H]1CO[P@@](=O)(N[C@@H](C)C(=O)OC(C)C)Oc1ccccc1` [Example 9, (2R,3R,4R,5R)-2-(4-aminopyrrolo[2,1-f][1,2,4]triazin-7-yl)-2-cyano-5-((((S)—(((S)-1-isopropoxy-1-oxopropan-2-yl)amino)(phenoxy)phosphoryl)oxy)methyl) tetrahydrofuran-3,4-diyl Diacetate]: in data set [1], the CC50 at 4 days is > 50000 nM. In addition, the pEC50 in data set [2] was 6.64.

With `CCOC(=O)[C@H](C)N[P@](=O)(OC[C@H]1O[C@@](C#N)(c2ccc3c(N)ncnn23)[C@H](OC(=O)C(C)C)[C@@H]1OC(=O)C(C)C)Oc1ccccc1` [Example 10, (2R,3R,4R,5R)-2-(4-aminopyrrolo[2,1-f][1,2,4]triazin-7-yl)-2-cyano-5-((((((S)-1-ethoxy-1-oxopropan-2-yl)amino)(phenoxy)phosphoryl)oxy)methyl)tetrahydrofuran-3,4-diyl bis(2-methylpropanoate)], the half-maximal cytotoxic concentration (CC50) at 4 days in data set [1] is 10300 nM. In data set [2], the pEC50 was 7.28.

Consider `CCC(CC)COC(=O)[C@H](C)NP(=O)(OC[C@H]1O[C@@](C#N)(c2ccc3c(N)ncnn23)[C@H](O)[C@@H]1O)Oc1c(C)cccc1C` (stereo partly drawn) [Example 19, 2-Ethylbutyl ((((2R,3S,4R,5R)-5-(4-aminopyrrolo[2,1-f][1,2,4]triazin-7-yl)-5-cyano-3,4-dihydroxytetrahydrofuran-2-yl)methoxy)(2,6-dimethylphenoxy)phosphoryl)-L-alaninate], for which the CC50 at 4 days in data set [1] was determined as 26500 nM. For the same molecule, the pEC50 in data set [2] was 6.16.
